The text below walks through data of PubChem BioAssay AID1259411 (Chemical Carcinogenesis Research Information System (CCRIS), 2018).

SMILES strings stand for the structures. Active and inactive are the calls of the source. No rule for the calls is given here.

For the series, the system named is rodent carcinogenicity bioassays, tumor incidence. As to the kind of experiment: CCRIS carcinogenicity studies. The essentials: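 Archive of carcinogenicity, mutagenicity, tumor promotion and tumor inhibition results drawn from journals, NCI reports and other sources, expert-reviewed; covers 1985-2011 and is no longer updated.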

As to `C`, the carcinogen call runs as follows: (Species: MOUSE, Strain/Sex: NMRI/FEMALE, Route: INHALATION, Dose: 0, 7.4 MG/M3 18 HR/D 5 D/WK FOR 4 MO INCREASED TO 12.2 MG/M3 FOR 9.5 MO FOLLOWED BY CLEAN AIR FOR 9.5 MO (STUDY DURATION) “inactive; negative”; (Species: RAT, Strain/Sex: F344/FEMALE, Route: INHALATION, Dose: 0, 2.5, 6.5 MG/M3 IN AIR 16 HR/D 5 D/WK FOR 24 MO (STUDY DURATION: 25.5 MO), Dose: 0, 2.5, 6.5 MG/M3 IN AIR 16 HR/D 5 D/WK FOR 24 MO (STUDY DURATION: 25.5 MO), Tumor Site: Type of Lesion: LUNG: BENIGN OR MALIGNANT NEOPLASM) “active; positive”; (Species: RAT, Strain/Sex: F344/FEMALE, Route: INHALATION, Dose: 0, 2.5, 6.5 MG/M3 OF AIR 16 HR/D 5 D/WK FOR UP TO 24 MO (STUDY DURATION: LIFE SPAN), Dose: 0, 2.5, 6.5 MG/M3 OF AIR 16 HR/D 5 D/WK FOR UP TO 24 MO (STUDY DURATION: LIFE SPAN), Tumor Site: Type of Lesion: LUNG: MALIGNANT TUMOR) “active; positive”; (Species: RAT, Strain/Sex: F344/MALE, Route: INHALATION, Dose: 0, 2.5, 6.5 MG/M3 IN AIR 16 HR/D 5 D/WK FOR 24 MO (STUDY DURATION: 25.5 MO), Dose: 0, 2.5, 6.5 MG/M3 IN AIR 16 HR/D 5 D/WK FOR 24 MO (STUDY DURATION: 25.5 MO)) “inactive; negative”; (Species: RAT, Strain/Sex: F344/MALE, Route: INHALATION, Dose: 0, 2.5, 6.5 MG/M3 OF AIR 16 HR/D 5 D/WK FOR UP TO 24 MO (STUDY DURATION: LIFE SPAN), Dose: 0, 2.5, 6.5 MG/M3 OF AIR 16 HR/D 5 D/WK FOR UP TO 24 MO (STUDY DURATION: LIFE SPAN), Tumor Site: Type of Lesion: LUNG: MALIGNANT TUMOR) “active; positive”; (Species: RAT, Strain/Sex: WISTAR/FEMALE, Route: INHALATION, Dose: 0, 7.4 MG/M3 18 HR/D 5 D/WK FOR 4 MO INCREASED TO 12.2 MG/M3 FOR 20 MO FOLLOWED BY CLEAN AIR FOR 6 MO (STUDY DURATION: 3, Tumor Site: Type of Lesion: LUNG: TUMOR) “active; positive”.

As for `CCC(O)OC` (stereo unspecified), the carcinogen call is “inactive; negative” (Species: MOUSE, Strain/Sex: B6C3F1/FEMALE, Route: INHALATION, Dose: 0, 300, 1000, 3000 PPM 6 HR/D 5 D/WK FOR 2 YR (STUDY DURATION: 2 YR), Dose: 0, 300, 1000, 3000 PPM 6 HR/D 5 D/WK FOR 2 YR (STUDY DURATION: 2 YR)); “inactive; negative” (Species: MOUSE, Strain/Sex: B6C3F1/MALE, Route: INHALATION, Dose: 0, 300, 1000, 3000 PPM 6 HR/D 5 D/WK FOR 2 YR (STUDY DURATION: 2 YR), Dose: 0, 300, 1000, 3000 PPM 6 HR/D 5 D/WK FOR 2 YR (STUDY DURATION: 2 YR)); “inactive; negative” (Species: RAT, Strain/Sex: F344/FEMALE, Route: INHALATION, Dose: 0, 300, 1000, 3000 PPM 6 HR/D 5 D/WK FOR 2 YR (STUDY DURATION: 2 YR), Dose: 0, 300, 1000, 3000 PPM 6 HR/D 5 D/WK FOR 2 YR (STUDY DURATION: 2 YR)); “inactive; negative” (Species: RAT, Strain/Sex: F344/MALE, Route: INHALATION, Dose: 0, 300, 1000, 3000 PPM 6 HR/D 5 D/WK FOR 2 YR (STUDY DURATION: 2 YR), Dose: 0, 300, 1000, 3000 PPM 6 HR/D 5 D/WK FOR 2 YR (STUDY DURATION: 2 YR)).

On to `O=C1CCCO1`, for which the carcinogen call is “inactive; negative” (Species: MOUSE, Strain/Sex: B6C3F1/FEMALE, Route: GAVAGE, Dose: 0, 262, 525 MG/KG IN CORN OIL 5 D/WK FOR 103 WK (STUDY DURATION: 2 YR), Dose: 0, 262, 525 MG/KG IN CORN OIL 5 D/WK FOR 103 WK (STUDY DURATION: 2 YR)); “equivocal” (Species: MOUSE, Strain/Sex: B6C3F1/FEMALE, Route: GAVAGE, Dose: 0, 262, 525 MG/KG IN CORN OIL 5 D/WK FOR 103 WK (STUDY DURATION: 105 WK), Dose: 0, 262, 525 MG/KG IN CORN OIL 5 D/WK FOR 103 WK (STUDY DURATION: 105 WK), Tumor Site: Type of Lesion: ADRENAL MEDULLA: BENIGN OR MALIGNANT PHEOCHROMOCYTOMA); “inactive; negative” (Species: RAT, Strain/Sex: F344/FEMALE, Route: GAVAGE, Dose: 0, 225, 450 MG/KG IN CORN OIL 5 D/WK FOR 103 WK (STUDY DURATION: 2 YR), Dose: 0, 225, 450 MG/KG IN CORN OIL 5 D/WK FOR 103 WK (STUDY DURATION: 2 YR)); “inactive; negative” (Species: RAT, Strain/Sex: F344/MALE, Route: GAVAGE, Dose: 0, 112, 225 MG/KG IN CORN OIL 5 D/WK FOR 103 WK (STUDY DURATION: 2 YR), Dose: 0, 112, 225 MG/KG IN CORN OIL 5 D/WK FOR 103 WK (STUDY DURATION: 2 YR)).

`OC1C=Cc2c(cc3ccc4cccc5c6ccccc6c2c3c45)C1O` (stereo unspecified): the carcinogen call (Species: MOUSE, Strain/Sex: SWISS/FEMALE, Route: DERMAL, Dose: 0, 1, 4 NMOL IN 100 µL ACETONE 2/WK FOR 40 WK (STUDY DURATION: 48 WK), Dose: 0, 1, 4 NMOL IN 100 µL ACETONE 2/WK FOR 40 WK (STUDY DURATION: 48 WK), Tumor Site: Type of Lesion: SKIN: TUMORS) is “active; positive”.

Consider `[Ni]=[Se]`, for which the carcinogen call (Species: RAT, Strain/Sex: F344/MALE, Route: INTRAMUSCULAR, Tumor Site: Type of Lesion: INJECTION SITE: SARCOMA) is “active; positive”.
